Laboratory results taken from patent US6525001B1, “Substituted pyrimidine and pyridine herbicides” (Mid-American Commercialization Corporation, priority 1997, dated 2003).

Assays:
Assay type in all cases: in vivo
Set-up in all cases: key: 0 is no effect; 10 is complete control
[1] = system: smallflower flatsedge (Cyperus difformis); assay: Test B flood test
Outline: (§1)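 Each value is a visual injury score relative to controls, with 10 meaning complete control and 0 no effect. Evaluation took place twelve to sixteen days after the 2-leaf-stage plants were treated and kept in the greenhouse.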

[2] = system: duck salad (Heteranthera limosa); assay: Test B flood test
Outline: as §1

[3] = system: bamyardgrass (Echinochloa crus-galli); assay: Test B flood test
Outline: as §1

rice (Oryza sativa) = assay: Test B flood test
Outline: as §1

[4] = system: cocklebur (Xanthium strumarium); assay: Test B pre-/postemergence; settings: Preemergence
Source text: (§2) Seeds of bedstraw (Galium aparine), blackgrass (Alopecurus myosuroides), broadleaf signalgrass (Brachiaria decumbens), cocklebur (Xanthium strumarium), corn (Zea mays), crabgrass (Digitaria sanguinalis), giant foxtail (Setaria faberii), lambsquarters (Chenopodium album), momingglory (Ipomoea hederacea), pigweed (Amaranthus retroflexus), rape (Brassica napus), soybean (Glycine max), sugar beet (Beta vulgaris), velvetleaf (Abutilon theophrasti), wheat (Triticum aestivum), wild oat (Avena fatua) and purple nutsedge (Cyperus rotundus) tubers were planted and treated preemergence with test chemicals formulated in a non-phytotoxic solvent mixture which included a surfactant.
(§3) At the same time, these crop and weed species were also treated with postemergence applications of test chemicals formulated in the same manner. Plants ranged in height from 2 to 18 cm (1- to 4-leaf stage) for postemergence treatments. Plant species in the flood test consisted of rice (Oryza sativa), smallflower flatsedge (Cyperus difformis), duck salad (Heteranthera limosa) and bamyardgrass (Echinochloa crus-galli) grown to the 2-leaf stage for testing. Treated plants and controls were maintained in a greenhouse for twelve to sixteen days, after which all species were compared to controls and visually evaluated. Plant response ratings, summarized in Table B, are based on a scale of 0 to 10 where 0 is no effect and 10 is complete control. A dash (−) response means no test result.

[5] = system: wheat (Triticum aestivum); assay: Test B pre-/postemergence
Source text: as §2, §3

corn (Zea mays) = assay: Test B pre-/postemergence
Source text: as §2, §3

[6] = system: broadleaf signalgrass (Brachiaria decumbens); assay: Test B pre-/postemergence
Source text: as §2, §3

[7] = system: sugar beet (Beta vulgaris); assay: Test B pre-/postemergence
Source text: as §2, §3

[8] = system: velvetleaf (Abutilon theophrasti); assay: Test B pre-/postemergence
Source text: as §2, §3

rape (Brassica napus) = assay: Test B pre-/postemergence
Source text: as §2, §3

soybean (Glycine max) = assay: Test B pre-/postemergence
Source text: as §2, §3

[9] = system: pigweed (Amaranthus retroflexus); assay: Test B pre-/postemergence
Source text: as §2, §3

[10] = system: bedstraw (Galium aparine); assay: Test B pre-/postemergence
Source text: as §2, §3

wild oat (Avena fatua) = assay: Test B pre-/postemergence
Source text: as §2, §3

[11] = system: purple nutsedge (Cyperus rotundus); assay: Test B pre-/postemergence
Source text: as §2, §3

[12] = system: giant foxtail (Setaria faberii); assay: Test B pre-/postemergence
Source text: as §2, §3

[13] = system: momingglory (Ipomoea hederacea); assay: Test B pre-/postemergence
Source text: as §2, §3

[14] = system: blackgrass (Alopecurus myosuroides); assay: Test B pre-/postemergence
Source text: as §2, §3

[15] = system: crabgrass (Digitaria sanguinalis); assay: Test B pre-/postemergence
Source text: as §2, §3

[16] = Rate 125 g/ha, Postemergence, flood test
[17] = Rate 250 g/ha, Postemergence (flood test species)
[18] = Rate 500 g/ha, Postemergence (flood test species)

Cc1cnc(-c2ccccc2)nc1Cn1ccc(C(F)(F)F)n1 [Compound 7]
Plant response rating, S. Flatsedge [1, 16]: 1 | Plant response rating, S. Flatsedge [1, 17]: 2 | Plant response rating, S. Flatsedge [1, 18]: 4 | Plant response rating, Ducksalad [2, 16]: 0 | Plant response rating, Ducksalad [2, 17]: 0 | Plant response rating, Ducksalad [2, 18]: 2 | Plant response rating, Barnyardgrass [3, 16]: 1 | Plant response rating, Barnyardgrass [3, 17]: 1 | Plant response rating, Barnyardgrass [3, 18]: 2 | Plant response rating, Rice (rice (Oryza sativa); [16]): 0 | Plant response rating, Rice (rice (Oryza sativa); [17]): 0 | Plant response rating, Rice (rice (Oryza sativa); [18]): 0 | Cocklebur plant response rating ([4]; Rate 125 g/ha): 0 | Plant response rating, Cocklebur ([4]; Rate 250 g/ha): 0 | Plant response rating, Cocklebur ([4]; Rate 500 g/ha): 0 | Plant response rating, Wheat ([5]; Rate 125 g/ha, Postemergence): 0 | Wheat plant response rating ([5]; Rate 125 g/ha, Preemergence): 0 | Plant response rating, Wheat ([5]; Rate 250 g/ha, Postemergence): 0 | Plant response rating, Wheat ([5]; Rate 250 g/ha, Preemergence): 0 | Plant response rating, Wheat ([5]; Rate 500 g/ha, Postemergence): 0 | Plant response rating, Wheat ([5]; Rate 500 g/ha, Preemergence): 0 | Plant response rating, Corn (corn (Zea mays); Rate 125 g/ha, Postemergence): 1 | Corn plant response rating (corn (Zea mays); Rate 125 g/ha, Preemergence): 0 | Plant response rating, Corn (corn (Zea mays); Rate 250 g/ha, Postemergence): 2 | Plant response rating, Corn (corn (Zea mays); Rate 250 g/ha, Preemergence): 0 | Plant response rating, Corn (corn (Zea mays); Rate 500 g/ha, Postemergence): 2 | Plant response rating, Corn (corn (Zea mays); Rate 500 g/ha, Preemergence): 0 | Plant response rating, B. signalgrass ([6]; Rate 125 g/ha, Postemergence): 1 | B. signalgrass plant response rating ([6]; Rate 125 g/ha, Preemergence): 0 | Plant response rating, B. signalgrass ([6]; Rate 250 g/ha, Postemergence): 1 | Plant response rating, B. signalgrass ([6]; Rate 250 g/ha, Preemergence): 0 | Plant response rating, B. signalgrass ([6]; Rate 500 g/ha, Postemergence): 1 | Plant response rating, B. signalgrass ([6]; Rate 500 g/ha, Preemergence): 0 | Plant response rating, Sugarbeets ([7]; Rate 125 g/ha, Postemergence): 3 | Sugarbeets plant response rating ([7]; Rate 125 g/ha, Preemergence): 0 | Plant response rating, Sugarbeets ([7]; Rate 250 g/ha, Postemergence): 8 | Plant response rating, Sugarbeets ([7]; Rate 250 g/ha, Preemergence): 0 | Plant response rating, Sugarbeets ([7]; Rate 500 g/ha, Postemergence): 8 | Plant response rating, Sugarbeets ([7]; Rate 500 g/ha, Preemergence): 1 | Plant response rating, Velvetleaf ([8]; Rate 125 g/ha, Postemergence): 1 | Velvetleaf plant response rating ([8]; Rate 125 g/ha, Preemergence): 0 | Plant response rating, Velvetleaf ([8]; Rate 250 g/ha, Postemergence): 1 | Plant response rating, Velvetleaf ([8]; Rate 250 g/ha, Preemergence): 0 | Plant response rating, Velvetleaf ([8]; Rate 500 g/ha, Postemergence): 2 | Plant response rating, Velvetleaf ([8]; Rate 500 g/ha, Preemergence): 0 | Plant response rating, Rape (rape (Brassica napus); Rate 125 g/ha, Postemergence): 5 | Rape plant response rating (rape (Brassica napus); Rate 125 g/ha, Preemergence): 0 | Plant response rating, Rape (rape (Brassica napus); Rate 250 g/ha, Postemergence): 6 | Plant response rating, Rape (rape (Brassica napus); Rate 250 g/ha, Preemergence): 0 | Plant response rating, Rape (rape (Brassica napus); Rate 500 g/ha, Postemergence): 7 | Plant response rating, Rape (rape (Brassica napus); Rate 500 g/ha, Preemergence): 0 | Plant response rating, Soybean (soybean (Glycine max); Rate 125 g/ha, Postemergence): 3 | Soybean plant response rating (soybean (Glycine max); Rate 125 g/ha, Preemergence): 0 | Plant response rating, Soybean (soybean (Glycine max); Rate 250 g/ha, Postemergence): 3 | Plant response rating, Soybean (soybean (Glycine max); Rate 250 g/ha, Preemergence): 0 | Plant response rating, Soybean (soybean (Glycine max); Rate 500 g/ha, Postemergence): 5 | Plant response rating, Soybean (soybean (Glycine max); Rate 500 g/ha, Preemergence): 0 | Plant response rating, Redroot pigweed ([9]; Rate 125 g/ha, Postemergence): 3 | Redroot pigweed plant response rating ([9]; Rate 125 g/ha, Preemergence): 0 | Plant response rating, Redroot pigweed ([9]; Rate 250 g/ha, Postemergence): 7 | Plant response rating, Redroot pigweed ([9]; Rate 250 g/ha, Preemergence): 2 | Plant response rating, Redroot pigweed ([9]; Rate 500 g/ha, Postemergence): 7 | Plant response rating, Redroot pigweed ([9]; Rate 500 g/ha, Preemergence): 2 | Plant response rating, Bedstraw ([10]; Rate 125 g/ha, Postemergence): 3 | Bedstraw plant response rating ([10]; Rate 125 g/ha, Preemergence): 0 | Plant response rating, Bedstraw ([10]; Rate 250 g/ha, Postemergence): 3 | Plant response rating, Bedstraw ([10]; Rate 250 g/ha, Preemergence): 0 | Plant response rating, Bedstraw ([10]; Rate 500 g/ha, Postemergence): 3 | Plant response rating, Bedstraw ([10]; Rate 500 g/ha, Preemergence): 0 | Plant response rating, Wild oats (wild oat (Avena fatua); Rate 125 g/ha, Postemergence): 0 | Wild oats plant response rating (wild oat (Avena fatua); Rate 125 g/ha, Preemergence): 0 | Plant response rating, Wild oats (wild oat (Avena fatua); Rate 250 g/ha, Postemergence): 0 | Plant response rating, Wild oats (wild oat (Avena fatua); Rate 250 g/ha, Preemergence): 0 | Plant response rating, Wild oats (wild oat (Avena fatua); Rate 500 g/ha, Postemergence): 0 | Plant response rating, Wild oats (wild oat (Avena fatua); Rate 500 g/ha, Preemergence): 0 | Plant response rating, Nutsedge ([11]; Rate 125 g/ha, Postemergence): 0 | Nutsedge plant response rating ([11]; Rate 125 g/ha, Preemergence): 0 | Plant response rating, Nutsedge ([11]; Rate 250 g/ha, Postemergence): 0 | Plant response rating, Nutsedge ([11]; Rate 250 g/ha, Preemergence): 0 | Plant response rating, Nutsedge ([11]; Rate 500 g/ha, Postemergence): 0 | Plant response rating, Nutsedge ([11]; Rate 500 g/ha, Preemergence): 0 | Plant response rating, Giant foxtail ([12]; Rate 125 g/ha, Postemergence): 1 | Giant foxtail plant response rating ([12]; Rate 125 g/ha, Preemergence): 0 | Plant response rating, Giant foxtail ([12]; Rate 250 g/ha, Postemergence): 1 | Plant response rating, Giant foxtail ([12]; Rate 250 g/ha, Preemergence): 1 | Plant response rating, Giant foxtail ([12]; Rate 500 g/ha, Postemergence): 1 | Plant response rating, Giant foxtail ([12]; Rate 500 g/ha, Preemergence): 5 | Plant response rating, Morningglory ([13]; Rate 125 g/ha, Postemergence): 1 | Morningglory plant response rating ([13]; Rate 125 g/ha, Preemergence): 0 | Plant response rating, Morningglory ([13]; Rate 250 g/ha, Postemergence): 2 | Plant response rating, Morningglory ([13]; Rate 250 g/ha, Preemergence): 0 | Plant response rating, Morningglory ([13]; Rate 500 g/ha, Postemergence): 5 | Plant response rating, Morningglory ([13]; Rate 500 g/ha, Preemergence): 0 | Plant response rating, Blackgrass ([14]; Rate 125 g/ha, Postemergence): 0 | Blackgrass plant response rating ([14]; Rate 125 g/ha, Preemergence): 0 | Plant response rating, Blackgrass ([14]; Rate 250 g/ha, Preemergence): 0 | Plant response rating, Blackgrass ([14]; Rate 500 g/ha, Postemergence): 1 | Plant response rating, Blackgrass ([14]; Rate 500 g/ha, Preemergence): 0 | Plant response rating, Crabgrass ([15]; Rate 125 g/ha, Postemergence): 0 | Crabgrass plant response rating ([15]; Rate 125 g/ha, Preemergence): 0 | Plant response rating, Crabgrass ([15]; Rate 250 g/ha, Postemergence): 2 | Plant response rating, Crabgrass ([15]; Rate 250 g/ha, Preemergence): 1 | Plant response rating, Crabgrass ([15]; Rate 500 g/ha, Postemergence): 2 | Plant response rating, Crabgrass ([15]; Rate 500 g/ha, Preemergence): 2
